Measured values: article PMC10005104 (Molecules, 2023)
Several values for one entry are separate records, joined by “and”; a condition that tells them apart may be missing. Identical values can stand only once. Entries after “also recorded” stand apart in the source; their conditions may differ. Counter-ions that a name gives are not always drawn. Like-named read-outs stand apart in the source and are kept apart here.

Experiments:
[1] = MTS assay in SH-SY5Y cells; type: cell-based; details: human, SH-SY5Y neuroblastoma cells; at 50 µM, percentage of control (vehicle-treated cells); read-out: SH-SY5Y Cell Viability (%)
Experimental: (§1) . After the indicated time, the MTS reagent was added directly to the cultured cells for 1 h, and then the absorbance at 490 nm was read. […] The results are presented in Table 2 and Figures S1 and S2 (Supplementary Materials).
(§2) The hepatoma cell line HepG2 (ATCC® HB-8065TM) and SH-SY5Y CRL-2266 neuroblastoma cell line were used to evaluate the toxicity of tested compounds. Tests were conducted as described previously. The CellTiter 96® Aqueous Non-Radioactive Cell Proliferation Assay was purchased from Promega (Madison, WI, USA). […]. […] Each experiment was performed twice, in triplicate.

[2] = system: SH-SY5Y cells; assay: MTS assay in SH-SY5Y cells; type: cell-based; details: Homo sapiens, SH-SY5Y; MTS assay, 24 h of exposure
Experimental: as §1, §2

[3] = biological target: T1, AChE from electrophorus electricus (eeAChE) (Electrophorus electricus, UniProt O42275); assay: modified Ellman colorimetric assay, eeAChE; type: biochemical; details: for IC50: three independent experiments, read-out: eeAChE IC50 Mean ± SEM
T1 construct: purchased Sigma-Aldrich (Steinheim, Germany)
Experimental: All compounds were tested at a concentration of 10 µM in a modified colorimetric method first described by Ellman et al. in the 1960s, using AChE from electrophorus electricus (eeAChE) and BuChE from equine serum (eqBuChE). […]. All results are collected in Table 1. […]. […] No correlation was observed between inhibitory activity and hH3R affinity. The most interesting compounds were among the azepane derivatives. […]. AChE from electrophorus electricus and BuChE from equine serum were purchased from Sigma-Aldrich (Steinheim, Germany). The whole procedure was performed as previously described, using a modified Ellman method in 96-well microplates. Absorbance was measured using an EnSpire multimode microplate reader (PerkinElmer, Waltham, MA, USA) at 412 nm. Initial screening was performed for compounds at a concentration of […]. The percentage of inhibition was calculated by comparison with a blank sample (100% enzyme activity). For compounds showing >70% inhibition of enzyme activity, IC50 values were determined, measuring absorbance at six different inhibitor concentrations. Each concentration was measured in triplicate. IC50 values were calculated using GrapPad Prism 9 software (GraphPad Software, San Diego, CA, USA). Data are expressed as mean ± SEM.

[4] = biological target: T2, BuChE from equine serum (eqBuChE) (Equus caballus, UniProt P81908); assay: biochemical; details: three independent experiments; read-out: eqBuChE IC50 Mean ± SEM
T2 construct: BuChE from equine serum (eqBuChE); purchased Sigma-Aldrich (Steinheim, Germany); host or cells: equine serum
Experimental: AChE from electrophorus electricus and BuChE from equine serum were purchased from Sigma-Aldrich (Steinheim, Germany). The whole procedure was performed as previously described, using a modified Ellman method in 96-well microplates. […] Initial screening was performed for compounds at a concentration of […]. The percentage of inhibition was calculated by comparison with a blank sample (100% enzyme activity). […] Each concentration was measured in triplicate. IC50 values were calculated using GrapPad Prism 9 software (GraphPad Software, San Diego, CA, USA). Data are expressed as mean ± SEM.

[5] = biological target: T3, human H3 receptor (hH3R) (Homo sapiens, UniProt Q9Y5N1); assay: [3H]-Nα-methylhistamine radioligand binding assay, HEK293 cell membranes expressing hH3R; details: hH3R Ki Mean [CI 95%], HEK293 cells expressing human H3 receptor; at least three independent repetitions
T3 construct: expressed in transfected cells; host or cells: HEK293
Experimental: The affinity for hH3R was assessed in vitro in radioligand binding assays, using membrane preparations of HEK293 cells stably expressing hH3R, while [^3H]-N^α-methylhistamine was used as a radioligand. The exact procedure was described previously by Kottke et al.. Novel compounds were tested as oxalic acid salts. […]. The activity depended on all three variables, i.e., the presence of an amine group, the chain length (five or six carbons), and the type of substituent in the phenyl ring. With regard to the change in the amine moiety, it can be observed that, regardless of the length of the chain and the type of R substituent, the activity of the derivatives was arranged in the following order: 3-methylpiperidine ≥ piperidine ≥ azepane >> 4-metylpiperidine derivatives. Regarding the length of the carbon chain, compounds bearing the pentylene chain are characterized by a higher binding affinity to the receptor than hexylene derivatives (exception: 10). […]
H3R receptor affinity assays were performed in the radioligand competition assay. Human H3R was stably expressed in HEK293 cells. [^3H]-N^α-Methylhistamine (KD = 3.08 nM) was used as the radioligand. The compounds used in the experiments were dissolved in DMSO. The precise experiment was performed as previously described. Complete curves were obtained for at least seven approximate concentrations, in at least three independent experiments, performed at least in duplicate. Ki values were calculated using the Cheng–Prusoff equation. Results are presented as mean values with confidence intervals (CI) (95%).

[6] = MTS assay in HepG2 cells; type: cell-based; details: human, HepG2 hepatoma cells; at 50 µM, percentage of control (vehicle-treated cells); read-out: HepG2 Cell Viability (%)
Experimental: as §1, §2

[7] = system: HepG2 cells; assay: MTS assay in HepG2 cells; type: cell-based; details: Homo sapiens, HepG2; MTS assay, 48 h of exposure
Experimental: as §1, §2

[8] = biological target: T4, hMAO B (Homo sapiens, UniProt P27338); assay: fluorometric Amplex red MAO assay; type: biochemical; details: at 1 µM; two independent experiments; read-out: hMAO B % inh
T4 construct: purchased Sigma-Aldrich (Steinheim, Germany)
T4 sequence (P27338 1-520): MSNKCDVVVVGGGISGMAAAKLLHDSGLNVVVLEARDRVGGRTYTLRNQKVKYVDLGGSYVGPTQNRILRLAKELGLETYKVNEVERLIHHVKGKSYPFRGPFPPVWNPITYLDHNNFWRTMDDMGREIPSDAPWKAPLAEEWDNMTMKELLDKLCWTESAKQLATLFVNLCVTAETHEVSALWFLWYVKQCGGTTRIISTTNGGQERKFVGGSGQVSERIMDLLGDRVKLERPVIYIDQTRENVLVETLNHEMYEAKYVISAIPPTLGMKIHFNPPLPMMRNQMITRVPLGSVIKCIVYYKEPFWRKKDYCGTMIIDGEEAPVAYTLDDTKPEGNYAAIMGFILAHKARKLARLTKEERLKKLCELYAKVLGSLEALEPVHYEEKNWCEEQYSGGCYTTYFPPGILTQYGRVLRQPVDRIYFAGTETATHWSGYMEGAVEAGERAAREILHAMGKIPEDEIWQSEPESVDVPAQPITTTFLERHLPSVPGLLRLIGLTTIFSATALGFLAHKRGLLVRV
Experimental: The ability to inhibit MAO B was estimated by a fluorescence assay, as previously described.
The enzyme was purchased from Sigma-Aldrich (Steinheim, Germany). Screening was carried out at a concentration of 1 micromolar. Inhibitor activity was measured in the presence of p-tyramine.
Data are expressed as mean values of two independent experiments.

[9] = MTS assay, statements on both cell lines together; type: cell-based, human; details: human, HepG2 hepatoma cells and SH-SY5Y neuroblastoma cells; HepG2 48 h, SH-SY5Y 24 h; up to 50 µM; read-out: cell viability at the highest doses tested
[10] = biological target: T5, eqBuChE (Equus caballus, UniProt P81908); assay: kinetic study of eqBuChE inhibition (Lineweaver-Burk, Cornish-Bowden plots); type: biochemical, equine; details: substrate butyrylthiocholine
T5 construct: BuChE from equine serum (eqBuChE); purchased Sigma-Aldrich (Steinheim, Germany); host or cells: equine serum
Experimental: The Michaelis–Menten equation was used to calculate the maximum velocity (Vmax) and the Michaelis constant (Km).
(§3) The type of line intersection and the location of this intersection confirms the mixed type of inhibition.
(§4) Studies were performed with compounds 16 and 17 using a method as described previously. Vmax and Km values of the Michaelis–Menten kinetics were calculated by nonlinear regression from substrate–velocity curves. Lineweaver–Burk and Cornish–Bowden plots were calculated using linear regression in GraphPad Prism 9 software (GraphPad Software, San Diego, CA, USA). Each experiment was performed in triplicate.

[11] = system: HepG2 and SH-SY5Y cells; assay: MTS assay, statements on both cell lines together; type: cell-based, human; details: HepG2 or SH-SY5Y cells; up to 50 µM
[12] = biological target: T6, eeAChE (Electrophorus electricus, UniProt O42275); assay: kinetic study of eeAChE inhibition (Lineweaver-Burk, Cornish-Bowden plots); type: biochemical; details: substrate acetylthiocholine
T6 construct: purchased Sigma-Aldrich (Steinheim, Germany)
Experimental: […]. The Michaelis–Menten equation was used to calculate the maximum velocity (Vmax) and the Michaelis constant (Km).
as §3, §4

[13] = system: AChE extracted from mouse brains (mbAChE); parameters: method as in PMID 30822710; details: cited from earlier work
[14] = system: mpBuChE; parameters: method as in PMID 30822710; details: cited from earlier work
[15] = system: hH3R; details: cited from earlier work
[16] = biological target: T1, AChE from electrophorus electricus (eeAChE); details: cited from earlier work
[17] = biological target: T2, BuChE from equine serum (eqBuChE); details: cited from earlier work
[18] = biological target: hH3R; details: cited from earlier work; remark: listed apart in the source

T3 sequence (Q9Y5N1 whole entry): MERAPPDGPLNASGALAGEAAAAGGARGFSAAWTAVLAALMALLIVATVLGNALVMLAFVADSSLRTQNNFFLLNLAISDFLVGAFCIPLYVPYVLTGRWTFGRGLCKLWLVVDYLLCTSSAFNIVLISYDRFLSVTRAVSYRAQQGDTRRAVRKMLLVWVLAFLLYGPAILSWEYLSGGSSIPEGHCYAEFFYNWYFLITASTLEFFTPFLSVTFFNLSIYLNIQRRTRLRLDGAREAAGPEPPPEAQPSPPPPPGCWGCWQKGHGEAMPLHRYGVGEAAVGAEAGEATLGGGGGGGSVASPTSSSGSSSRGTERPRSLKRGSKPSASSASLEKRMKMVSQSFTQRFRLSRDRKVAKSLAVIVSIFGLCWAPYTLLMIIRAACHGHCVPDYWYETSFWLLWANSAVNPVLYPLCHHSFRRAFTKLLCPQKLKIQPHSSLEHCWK
T2 sequence (P81908 whole entry): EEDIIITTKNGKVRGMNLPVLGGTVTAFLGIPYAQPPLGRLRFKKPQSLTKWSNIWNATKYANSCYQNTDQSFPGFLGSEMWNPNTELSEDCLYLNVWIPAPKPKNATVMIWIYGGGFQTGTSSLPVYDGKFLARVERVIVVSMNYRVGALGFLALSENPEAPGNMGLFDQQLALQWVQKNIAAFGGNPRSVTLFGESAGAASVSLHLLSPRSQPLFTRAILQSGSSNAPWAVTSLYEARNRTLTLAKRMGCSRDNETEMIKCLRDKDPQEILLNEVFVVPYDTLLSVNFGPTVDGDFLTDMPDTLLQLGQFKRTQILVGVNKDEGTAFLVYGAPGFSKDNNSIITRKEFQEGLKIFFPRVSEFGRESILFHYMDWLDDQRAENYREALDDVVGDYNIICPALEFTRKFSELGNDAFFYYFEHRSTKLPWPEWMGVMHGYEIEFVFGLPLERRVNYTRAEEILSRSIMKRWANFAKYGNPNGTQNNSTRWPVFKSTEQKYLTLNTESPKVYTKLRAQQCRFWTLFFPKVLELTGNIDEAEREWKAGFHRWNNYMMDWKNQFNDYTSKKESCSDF
T1 sequence (O42275 24-633): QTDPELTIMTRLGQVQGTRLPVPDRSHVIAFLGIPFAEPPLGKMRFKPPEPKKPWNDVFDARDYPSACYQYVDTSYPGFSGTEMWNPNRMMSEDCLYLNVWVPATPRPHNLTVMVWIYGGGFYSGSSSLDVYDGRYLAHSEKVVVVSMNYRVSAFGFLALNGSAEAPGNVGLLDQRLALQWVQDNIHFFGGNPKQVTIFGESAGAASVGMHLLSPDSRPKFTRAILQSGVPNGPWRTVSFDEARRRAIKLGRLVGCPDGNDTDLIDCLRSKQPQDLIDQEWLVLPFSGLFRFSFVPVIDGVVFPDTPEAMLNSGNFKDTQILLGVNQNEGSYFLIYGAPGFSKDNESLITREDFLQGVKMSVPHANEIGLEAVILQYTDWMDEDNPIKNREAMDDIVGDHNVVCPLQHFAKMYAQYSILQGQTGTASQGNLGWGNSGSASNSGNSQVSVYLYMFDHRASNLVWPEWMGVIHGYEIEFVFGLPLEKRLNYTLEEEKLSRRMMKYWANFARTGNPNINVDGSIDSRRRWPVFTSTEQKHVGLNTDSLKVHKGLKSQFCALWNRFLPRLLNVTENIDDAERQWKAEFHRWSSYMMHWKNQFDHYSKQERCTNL
T6 sequence (O42275 24-633): as above
T5 sequence (P81908 whole entry): as the sequence (P81908 whole entry) above

CCC(=O)c1ccc(OCCCCCN2CCCC(C)C2)cc1 (stereo not shown) [Compound 8, 1-(4-((5-(3-Methylpiperidin-1-yl)pentyl)oxy)phenyl)propan-1-one hydrogen oxalate]
viability at 24 h, 50 µM [1]: 90.7 ± 1.5%
IC50 [2]: 349000 nM
IC50 [3]: 2100 ± 60 nM
IC50 [4]: 1750 ± 50 nM
Ki [5]: 12 nM
viability at 48 h, 50 µM [6]: 70.9 ± 2.92%
IC50 [7]: 142000 nM
inhibition at 1 µM [8]: 19%
viability at 50 µM [9]: > 50%

CCC(=O)c1ccc(OCCCCCN2CCC(C)CC2)cc1 [Compound 12, 1-(4-((5-(4-Methylpiperidin-1-yl)pentyl)oxy)phenyl)propan-1-one hydrogen oxalate]
viability at 24 h, 50 µM [1]: 90.7 ± 12.9%
IC50 [2]: 421000 nM
inhibition at 10 µM ([3]; at 10 µM, read-out: eeAChE % inh): 58%
IC50 [4]: 1290 ± 80 nM
Ki [5]: 57 nM
viability at 48 h, 50 µM [6]: 77.2 ± 4.14%
IC50 [7]: 149000 nM
inhibition at 1 µM [8]: 0%
viability at 50 µM [9]: > 50%

CCC(=O)c1ccc(OCCCCCN2CCCCCC2)cc1.O=C(O)C(=O)O [Compound 16, 1-(4-((5-(Azepan-1-yl)pentyl)oxy)phenyl)propan-1-one hydrogen oxalate]
type of eqBuChE inhibition [10]: mixed
viability at 24 h, 50 µM [1]: 90.3 ± 5.32%
IC50 [2]: 357000 nM
IC50 [3]: 3600 ± 120 nM
IC50 [4]: 550 ± 20 nM
Ki [5]: < 50 nM and 30 nM
viability at 48 h, 50 µM [6]: 67.7 ± 1.14%
IC50 [7]: 92000 nM
inhibition at 1 µM [8]: 6%
viability at 50 µM [9]: > 50%
cell toxicity [11]: lack of cell toxicity

CCC(=O)c1ccc(OCCCCCCN2CCCCCC2)cc1.O=C(O)C(=O)O [Compound 17, 1-(4-((6-(Azepan-1-yl)hexyl)oxy)phenyl)propan-1-one hydrogen oxalate]
type of eeAChE inhibition [12]: non-competitive (mixed); also recorded: mixed
viability at 24 h, 50 µM [1]: 70.3 ± 4.46%
IC50 [2]: 111000 nM
IC50 [3]: 1060 ± 30 nM
IC50 [4]: 2860 ± 30 nM
Ki [5]: < 50 nM and 42 nM
viability at 48 h, 50 µM [6]: 58 ± 3.54%
IC50 [7]: 60000 nM
inhibition at 1 µM [8]: 5%
viability at 50 µM [9]: > 50%
cell toxicity [11]: lack of cell toxicity

CCN(C)CCCCOc1ccc2c(=O)c(-c3ccc(OCCN4CCCCC4)cc3)coc2c1 [II]
IC50 [13]: 80 nM
IC50 [14]: 2890 nM
IC50 [15]: 270 nM

CN1CCN(CCCN(C)C(=O)c2cc3ccc(Cl)cc3[nH]2)CC1 [I]
IC50 [16]: 9090 nM
IC50 [17]: 21100 nM
EC50 [15]: 730 nM

C=CCN1CCN(CC2Cc3cc(C(C)(C)C)ccc3O2)CC1 (stereo not shown) [VI]
Ki [18]: 16 nM
IC50 [16]: 19100 nM
IC50 [17]: 13200 nM

N#Cc1ccc(-c2ccc(OCCCN3CCCCCC3)cc2)cc1 [V]
Ki [18]: 9 nM
IC50 [16]: 2630 nM
IC50 [17]: 1300 nM

O=C(c1ccccc1)c1ccc(OCCCCCN2CCCCCC2)cc1 [lead 2]
Ki [18]: 40 nM
IC50 [16]: 4630 nM
IC50 [17]: 680 nM
